Laboratory results reported in the kinase profiling compilation of Christmann-Franck et al. (2016).

Tests used:
Assay in all cases: KINOMEscan competition binding
Details in all cases: compound 10.0 µM
FYN (human) = FYN (human) (UniProt P06241)
MAP2K4 (human) = MAP2K4 (human) (UniProt P45985)
PRKACB (human) = PRKACB (human) (UniProt P22694)
CDK9 (human) = CDK9 (human) (UniProt P50750)
NIM1 (human) = NIM1 (human) (UniProt Q8IY84)
IKBKE (human) = IKBKE (human) (UniProt Q14164)
CAMK2G (human) = CAMK2G (human) (UniProt Q13555)
MAPK9 (human) = MAPK9 (human) (UniProt P45984)
Sequence of MAPK9 (human) (P45984 whole entry, looked up): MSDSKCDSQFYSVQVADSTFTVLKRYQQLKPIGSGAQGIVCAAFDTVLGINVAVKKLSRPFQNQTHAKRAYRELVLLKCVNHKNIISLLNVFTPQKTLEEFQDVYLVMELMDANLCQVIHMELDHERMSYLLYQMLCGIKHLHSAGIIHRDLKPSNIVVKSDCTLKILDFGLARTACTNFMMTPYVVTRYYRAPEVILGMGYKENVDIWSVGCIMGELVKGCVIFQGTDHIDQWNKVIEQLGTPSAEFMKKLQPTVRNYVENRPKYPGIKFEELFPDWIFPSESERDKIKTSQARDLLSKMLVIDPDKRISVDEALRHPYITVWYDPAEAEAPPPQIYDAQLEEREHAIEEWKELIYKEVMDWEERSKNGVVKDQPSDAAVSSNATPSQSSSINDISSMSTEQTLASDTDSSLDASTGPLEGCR

FGFR1 (human) = FGFR1 (human) (UniProt P11362)
MAK (human) = MAK (human) (UniProt P20794)
MAP3K3 (human) = MAP3K3 (human) (UniProt Q99759)
Sequence of MAP3K3 (human) (Q99759 whole entry, looked up): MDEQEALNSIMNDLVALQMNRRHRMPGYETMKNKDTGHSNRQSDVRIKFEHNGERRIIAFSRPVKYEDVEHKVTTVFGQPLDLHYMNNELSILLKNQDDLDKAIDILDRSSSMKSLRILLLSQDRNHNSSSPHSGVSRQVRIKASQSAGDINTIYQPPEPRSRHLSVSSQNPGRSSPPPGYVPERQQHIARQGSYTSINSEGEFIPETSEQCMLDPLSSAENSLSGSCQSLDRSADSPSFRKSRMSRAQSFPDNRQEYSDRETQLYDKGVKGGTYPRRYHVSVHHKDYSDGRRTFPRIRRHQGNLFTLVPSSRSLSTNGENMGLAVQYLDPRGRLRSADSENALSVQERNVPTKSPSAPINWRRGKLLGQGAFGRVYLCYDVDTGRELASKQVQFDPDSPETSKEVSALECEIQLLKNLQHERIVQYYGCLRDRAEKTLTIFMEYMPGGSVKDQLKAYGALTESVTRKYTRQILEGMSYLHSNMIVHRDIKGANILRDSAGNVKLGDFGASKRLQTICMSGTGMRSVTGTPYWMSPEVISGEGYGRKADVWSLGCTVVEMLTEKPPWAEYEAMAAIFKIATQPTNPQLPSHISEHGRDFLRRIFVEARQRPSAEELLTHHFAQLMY

PIP4K2B (human) = PIP4K2B (human) (UniProt P78356)
ACVR2B (human) = ACVR2B (human) (UniProt Q13705)
ITK (human) = ITK (human) (UniProt Q08881)
Sequence of ITK (human) (Q08881 whole entry, looked up): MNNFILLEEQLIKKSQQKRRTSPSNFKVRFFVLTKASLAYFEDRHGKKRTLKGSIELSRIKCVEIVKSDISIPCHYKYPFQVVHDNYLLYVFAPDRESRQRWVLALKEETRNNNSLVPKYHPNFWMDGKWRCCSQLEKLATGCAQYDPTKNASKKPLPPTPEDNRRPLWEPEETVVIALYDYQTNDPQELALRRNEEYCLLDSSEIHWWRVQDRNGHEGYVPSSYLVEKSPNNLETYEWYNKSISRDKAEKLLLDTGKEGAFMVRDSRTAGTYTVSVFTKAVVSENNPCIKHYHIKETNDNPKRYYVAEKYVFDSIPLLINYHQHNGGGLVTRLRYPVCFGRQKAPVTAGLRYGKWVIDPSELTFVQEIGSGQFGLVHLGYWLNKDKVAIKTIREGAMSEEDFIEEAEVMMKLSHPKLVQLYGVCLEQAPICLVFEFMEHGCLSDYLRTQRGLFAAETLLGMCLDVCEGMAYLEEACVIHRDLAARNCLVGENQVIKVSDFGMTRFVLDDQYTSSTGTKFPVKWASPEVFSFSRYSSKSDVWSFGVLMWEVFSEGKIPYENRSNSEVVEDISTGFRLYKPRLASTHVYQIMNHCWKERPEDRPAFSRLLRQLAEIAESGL

BTK (human) = BTK (human) (UniProt Q06187)
EPHA3 (human) = EPHA3 (human) (UniProt P29320)
MST4 (human) = MST4 (human) (UniProt Q9P289)
MAP3K1 (human) = MAP3K1 (human) (UniProt Q13233)
[1] = tested on: KIT (human), P10721 [V559D/V654A]
PRKAA2 (human) = PRKAA2 (human) (UniProt P54646)
RPS6KA3 KD1 (human) = RPS6KA3 KD1 (human) (UniProt P51812)
RPS6KA1 KD2 (human) = RPS6KA1 KD2 (human) (UniProt Q15418)
MAPK4 (human) = MAPK4 (human) (UniProt P31152)
MAP3K5 (human) = MAP3K5 (human) (UniProt Q99683)
MELK (human) = MELK (human) (UniProt Q14680)
VRK2 (human) = VRK2 (human) (UniProt Q86Y07)
Sequence of VRK2 (human) (Q86Y07 whole entry, looked up): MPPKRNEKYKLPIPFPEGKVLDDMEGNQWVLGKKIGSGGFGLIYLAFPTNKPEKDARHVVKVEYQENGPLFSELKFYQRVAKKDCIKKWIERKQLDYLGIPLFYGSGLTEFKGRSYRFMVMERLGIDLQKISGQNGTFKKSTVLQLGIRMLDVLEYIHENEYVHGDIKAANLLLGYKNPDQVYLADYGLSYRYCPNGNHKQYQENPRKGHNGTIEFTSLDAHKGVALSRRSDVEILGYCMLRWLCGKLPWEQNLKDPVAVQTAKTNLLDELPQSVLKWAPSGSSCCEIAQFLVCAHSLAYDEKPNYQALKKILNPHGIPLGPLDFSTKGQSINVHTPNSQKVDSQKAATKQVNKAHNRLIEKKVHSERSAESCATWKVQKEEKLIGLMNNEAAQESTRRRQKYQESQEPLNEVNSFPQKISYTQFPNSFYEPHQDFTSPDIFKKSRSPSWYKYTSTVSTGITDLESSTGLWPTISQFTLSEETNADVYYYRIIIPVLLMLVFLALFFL

IRAK3 (human) = IRAK3 (human) (UniProt Q9Y616)
GSK3A (human) = GSK3A (human) (UniProt P49840)
MST1R (human) = MST1R (human) (UniProt Q04912)
CDKL3 (human) = CDKL3 (human) (UniProt Q8IVW4)
Sequence of CDKL3 (human) (Q8IVW4 whole entry, looked up): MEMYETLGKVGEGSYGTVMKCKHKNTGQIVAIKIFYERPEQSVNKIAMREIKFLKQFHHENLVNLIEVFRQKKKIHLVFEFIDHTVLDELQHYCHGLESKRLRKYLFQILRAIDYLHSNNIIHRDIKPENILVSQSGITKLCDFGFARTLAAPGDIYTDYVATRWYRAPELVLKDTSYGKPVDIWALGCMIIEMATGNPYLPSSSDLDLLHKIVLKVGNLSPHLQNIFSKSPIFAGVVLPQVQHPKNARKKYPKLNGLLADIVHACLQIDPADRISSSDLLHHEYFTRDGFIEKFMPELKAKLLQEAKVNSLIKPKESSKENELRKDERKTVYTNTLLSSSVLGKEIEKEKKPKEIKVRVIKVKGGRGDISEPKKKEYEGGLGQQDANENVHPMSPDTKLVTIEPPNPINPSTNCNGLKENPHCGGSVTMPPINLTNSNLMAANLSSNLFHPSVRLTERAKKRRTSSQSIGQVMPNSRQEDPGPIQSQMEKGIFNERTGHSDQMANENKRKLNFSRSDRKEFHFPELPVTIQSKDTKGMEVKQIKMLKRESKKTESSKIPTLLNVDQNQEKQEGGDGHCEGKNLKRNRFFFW

CSNK1A1L (human) = CSNK1A1L (human) (UniProt Q8N752)
Sequence of CSNK1A1L (human) (Q8N752 whole entry, looked up): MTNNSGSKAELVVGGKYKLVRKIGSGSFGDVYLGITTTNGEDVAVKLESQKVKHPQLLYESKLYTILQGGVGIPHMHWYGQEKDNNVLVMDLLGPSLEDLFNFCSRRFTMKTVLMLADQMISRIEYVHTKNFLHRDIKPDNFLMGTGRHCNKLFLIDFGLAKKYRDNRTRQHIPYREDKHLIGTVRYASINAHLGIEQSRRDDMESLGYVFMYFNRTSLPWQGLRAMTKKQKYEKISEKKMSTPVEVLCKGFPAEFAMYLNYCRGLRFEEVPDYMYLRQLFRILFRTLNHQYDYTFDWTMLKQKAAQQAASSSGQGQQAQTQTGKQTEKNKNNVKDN

CAMK4 (human) = CAMK4 (human) (UniProt Q16566)
RIPK1 (human) = RIPK1 (human) (UniProt Q13546)
PAK2 (human) = PAK2 (human) (UniProt Q13177)
PRKG2 (human) = PRKG2 (human) (UniProt Q13237)
PIK3CD (human) = PIK3CD (human) (UniProt O00329)
Sequence of PIK3CD (human) (O00329 whole entry, looked up): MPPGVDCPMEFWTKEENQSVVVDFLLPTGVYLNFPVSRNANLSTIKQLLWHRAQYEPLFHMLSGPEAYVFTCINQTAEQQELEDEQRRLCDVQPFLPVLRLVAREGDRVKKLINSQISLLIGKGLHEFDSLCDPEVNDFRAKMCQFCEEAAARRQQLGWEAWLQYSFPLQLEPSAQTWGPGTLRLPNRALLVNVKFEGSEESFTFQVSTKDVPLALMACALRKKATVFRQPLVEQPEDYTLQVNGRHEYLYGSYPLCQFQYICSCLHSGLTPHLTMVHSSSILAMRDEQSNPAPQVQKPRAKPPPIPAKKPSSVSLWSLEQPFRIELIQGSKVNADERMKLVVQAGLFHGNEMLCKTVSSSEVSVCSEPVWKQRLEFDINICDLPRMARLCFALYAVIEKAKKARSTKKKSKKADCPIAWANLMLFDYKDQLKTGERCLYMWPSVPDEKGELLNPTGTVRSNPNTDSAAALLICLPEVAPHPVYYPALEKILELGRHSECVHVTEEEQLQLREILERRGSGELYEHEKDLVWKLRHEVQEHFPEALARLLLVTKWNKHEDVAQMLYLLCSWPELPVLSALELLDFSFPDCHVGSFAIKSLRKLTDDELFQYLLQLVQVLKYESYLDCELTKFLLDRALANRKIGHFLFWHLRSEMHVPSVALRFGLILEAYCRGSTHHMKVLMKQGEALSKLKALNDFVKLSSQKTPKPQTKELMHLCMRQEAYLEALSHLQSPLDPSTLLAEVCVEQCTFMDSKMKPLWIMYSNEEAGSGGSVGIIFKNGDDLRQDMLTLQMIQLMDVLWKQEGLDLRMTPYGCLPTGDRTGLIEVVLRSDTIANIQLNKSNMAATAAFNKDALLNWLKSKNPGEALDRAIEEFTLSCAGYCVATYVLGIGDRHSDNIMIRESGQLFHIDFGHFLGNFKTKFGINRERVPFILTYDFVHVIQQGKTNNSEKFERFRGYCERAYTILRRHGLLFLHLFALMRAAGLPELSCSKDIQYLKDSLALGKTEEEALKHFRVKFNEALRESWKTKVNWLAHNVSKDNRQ

PIP5K1A (human) = PIP5K1A (human) (UniProt Q99755)
CDK19 (human) = CDK19 (human) (UniProt Q9BWU1)
CSF1R (human) = CSF1R (human) (UniProt P07333)
[2] = tested on: EGFR (human), P00533 [T790M/L858R]

Sequence of CDK9 (human) (P50750 whole entry, looked up): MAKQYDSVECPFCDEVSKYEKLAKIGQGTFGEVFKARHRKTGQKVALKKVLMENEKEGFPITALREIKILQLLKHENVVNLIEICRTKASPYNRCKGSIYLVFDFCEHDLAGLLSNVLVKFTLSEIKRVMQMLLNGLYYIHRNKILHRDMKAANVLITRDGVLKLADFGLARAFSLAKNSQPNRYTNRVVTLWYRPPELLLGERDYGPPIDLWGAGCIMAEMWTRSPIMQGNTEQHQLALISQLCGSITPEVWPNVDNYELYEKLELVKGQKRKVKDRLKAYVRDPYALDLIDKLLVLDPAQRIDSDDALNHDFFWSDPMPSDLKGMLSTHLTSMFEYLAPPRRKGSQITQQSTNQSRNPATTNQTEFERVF
Sequence of NIM1 (human) (Q8IY84 whole entry, looked up): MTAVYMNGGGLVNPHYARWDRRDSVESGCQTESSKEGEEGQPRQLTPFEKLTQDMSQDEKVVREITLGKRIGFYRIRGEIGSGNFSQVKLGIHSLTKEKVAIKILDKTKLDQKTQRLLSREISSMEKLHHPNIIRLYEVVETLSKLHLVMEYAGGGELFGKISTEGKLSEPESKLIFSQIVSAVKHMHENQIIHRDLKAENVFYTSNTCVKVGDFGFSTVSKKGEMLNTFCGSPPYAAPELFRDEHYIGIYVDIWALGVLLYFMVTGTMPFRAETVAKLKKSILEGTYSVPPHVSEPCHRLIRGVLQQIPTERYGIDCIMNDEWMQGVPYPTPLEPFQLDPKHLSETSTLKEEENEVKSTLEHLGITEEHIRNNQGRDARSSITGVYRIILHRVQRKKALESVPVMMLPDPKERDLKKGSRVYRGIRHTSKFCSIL

Row | SMILES | kinase still bound, per cent of control (FYN (human)) [%] | kinase still bound, per cent of control (MAP2K4 (human)) [%] | kinase still bound, per cent of control (PRKACB (human)) [%] | kinase still bound, per cent of control (CDK9 (human)) [%] | kinase still bound, per cent of control (NIM1 (human)) [%] | kinase still bound, per cent of control (IKBKE (human)) [%] | kinase still bound, per cent of control (CAMK2G (human)) [%] | kinase still bound, per cent of control (MAPK9 (human)) [%] | kinase still bound, per cent of control (FGFR1 (human)) [%] | kinase still bound, per cent of control (MAK (human)) [%] | kinase still bound, per cent of control (PIP4K2B (human)) [%] | kinase still bound, per cent of control (ACVR2B (human)) [%] | kinase still bound, per cent of control (ITK (human)) [%] | kinase still bound, per cent of control (MST4 (human)) [%] | kinase still bound, per cent of control (MAP3K1 (human)) [%] | kinase still bound, per cent of control [1] [%] | kinase still bound, per cent of control (PRKAA2 (human)) [%] | kinase still bound, per cent of control (RPS6KA3 KD1 (human)) [%] | kinase still bound, per cent of control (RPS6KA1 KD2 (human)) [%] | kinase still bound, per cent of control (MAPK4 (human)) [%] | other results
1 | N#CCNC(=O)c1ccc(-c2ccnc(Nc3ccc(N4CCOCC4)cc3)n2)cc1 | 78 | 32 | 36 | 55 | 100 | 5.2 | 36 | 26 | 86 | 100 | 89 | 54 | 98 | 83 | 92 | 100 | 74 | 100 | 80 | 93 | kinase still bound, per cent of control (MAP3K3 (human)): 51%; kinase still bound, per cent of control (BTK (human)): 75%; kinase still bound, per cent of control (EPHA3 (human)): 69%; kinase still bound, per cent of control (MAP3K5 (human)): 100%; kinase still bound, per cent of control (MELK (human)): 100%; kinase still bound, per cent of control (VRK2 (human)): 94%; kinase still bound, per cent of control (IRAK3 (human)): 22%; kinase still bound, per cent of control (GSK3A (human)): 100%; kinase still bound, per cent of control (MST1R (human)): 100%; kinase still bound, per cent of control (CDKL3 (human)): 60%; kinase still bound, per cent of control (CSNK1A1L (human)): 100%; kinase still bound, per cent of control (CAMK4 (human)): 100%; kinase still bound, per cent of control (RIPK1 (human)): 63%; kinase still bound, per cent of control (PAK2 (human)): 100%; kinase still bound, per cent of control (PRKG2 (human)): 100%; kinase still bound, per cent of control (PIK3CD (human)): 45%; kinase still bound, per cent of control (PIP5K1A (human)): 39%; kinase still bound, per cent of control (CDK19 (human)): 100%
2 | C[C@@H](Oc1cc(-c2cnn(C3CCNCC3)c2)cnc1N)c1c(Cl)ccc(F)c1Cl | 10 | 93 | 100 | 88 | 12 | 60 | 100 | 82 | 46 | 63 | 3.8 | 38 | 33 | 13 | 4.4 | 100 | 17 | 47 | 54 | 84 | kinase still bound, per cent of control (EPHA3 (human)): 11%; kinase still bound, per cent of control (MAP3K5 (human)): 100%; kinase still bound, per cent of control (MELK (human)): 47%; kinase still bound, per cent of control (VRK2 (human)): 100%; kinase still bound, per cent of control (CSF1R (human)): 0.15%; kinase still bound, per cent of control (IRAK3 (human)): 0.95%; kinase still bound, per cent of control (GSK3A (human)): 100%; kinase still bound, per cent of control (CDKL3 (human)): 68%; kinase still bound, per cent of control (CSNK1A1L (human)): 100%; kinase still bound, per cent of control (CAMK4 (human)): 100%; kinase still bound, per cent of control (RIPK1 (human)): 5%; kinase still bound, per cent of control (PAK2 (human)): 96%; kinase still bound, per cent of control (PRKG2 (human)): 89%; kinase still bound, per cent of control (PIK3CD (human)): 100%; kinase still bound, per cent of control (PIP5K1A (human)): 0.1%; kinase still bound, per cent of control (CDK19 (human)): 100%
3 | O=C1NC(=O)/C(=C/c2ccc3nccc(-c4ccncc4)c3c2)S1 | 94 | 9.6 | 31 | 16 | 71 | 45 | 28 | 39 | 81 | 100 | 4 | 20 | 81 | 90 | 60 | 100 | 93 | 41 | 19 | 100 | kinase still bound, per cent of control (MAP3K3 (human)): 75%; kinase still bound, per cent of control (BTK (human)): 58%; kinase still bound, per cent of control (EPHA3 (human)): 75%; kinase still bound, per cent of control [2]: 82%; kinase still bound, per cent of control (MAP3K5 (human)): 58%; kinase still bound, per cent of control (MELK (human)): 8.6%; kinase still bound, per cent of control (VRK2 (human)): 81%; kinase still bound, per cent of control (IRAK3 (human)): 14%; kinase still bound, per cent of control (GSK3A (human)): 71%; kinase still bound, per cent of control (MST1R (human)): 100%; kinase still bound, per cent of control (CDKL3 (human)): 99%; kinase still bound, per cent of control (CSNK1A1L (human)): 55%; kinase still bound, per cent of control (CAMK4 (human)): 100%; kinase still bound, per cent of control (RIPK1 (human)): 100%; kinase still bound, per cent of control (PAK2 (human)): 21%; kinase still bound, per cent of control (PRKG2 (human)): 56%; kinase still bound, per cent of control (PIK3CD (human)): 4.8%; kinase still bound, per cent of control (PIP5K1A (human)): 48%; kinase still bound, per cent of control (CDK19 (human)): 4.2%
4 | COc1cc2ncn(-c3cc(OCc4ccccc4C(F)(F)F)c(C(N)=O)s3)c2cc1OC | 48 | 100 | 100 | 100 | 88 | 60 | 83 | 78 | 43 | 100 | 6.6 | 58 | 98 | 85 | 1.6 | 100 | 92 | 22 | 63 | 100 | kinase still bound, per cent of control (MAP3K3 (human)): 74%; kinase still bound, per cent of control (BTK (human)): 86%; kinase still bound, per cent of control (MAP3K5 (human)): 87%; kinase still bound, per cent of control (MELK (human)): 61%; kinase still bound, per cent of control (VRK2 (human)): 87%; kinase still bound, per cent of control (IRAK3 (human)): 67%; kinase still bound, per cent of control (GSK3A (human)): 100%; kinase still bound, per cent of control (MST1R (human)): 100%; kinase still bound, per cent of control (CDKL3 (human)): 100%; kinase still bound, per cent of control (CSNK1A1L (human)): 78%; kinase still bound, per cent of control (CAMK4 (human)): 100%; kinase still bound, per cent of control (RIPK1 (human)): 74%; kinase still bound, per cent of control (PAK2 (human)): 96%; kinase still bound, per cent of control (PRKG2 (human)): 86%; kinase still bound, per cent of control (PIK3CD (human)): 78%; kinase still bound, per cent of control (PIP5K1A (human)): 3.4%; kinase still bound, per cent of control (CDK19 (human)): 100%
